Test results as given in ChEMBL document CHEMBL5325403, “Benzenesulfonyl thiazoloimines as unique multitargeting antibacterial agents towards Enterococcus faecalis” (Eur J Med Chem, 2023).
In brackets after ≈: the same amount, converted by molar mass.

Assays:
Assay type in all cases: functional
Pseudomonas aeruginosa [1] = experiment: Antibacterial activity against Pseudomonas aeruginosa assessed as inhibition of bacterial growth by continuous dilution method
Staphylococcus aureus [2] = experiment: Antibacterial activity against methicillin-resistant Staphylococcus aureus N315 assessed as inhibition of bacterial growth by continuous dilution method
Escherichia coli [3] = experiment: Antibacterial activity against Escherichia coli assessed as inhibition of bacterial growth by continuous dilution method
Staphylococcus aureus [4] = experiment: Antibacterial activity against Staphylococcus aureus assessed as inhibition of bacterial growth by continuous dilution method
Staphylococcus aureus [5] = experiment: Antibacterial activity against Staphylococcus aureus ATCC 29213 assessed as inhibition of bacterial growth by continuous dilution method
Acinetobacter baumannii = experiment: Antibacterial activity against Acinetobacter baumannii assessed as inhibition of bacterial growth by continuous dilution method
Escherichia coli [6] = experiment: Antibacterial activity against Escherichia coli ATCC 25922 assessed as inhibition of bacterial growth by continuous dilution method
Pseudomonas aeruginosa [7] = experiment: Antibacterial activity against Pseudomonas aeruginosa ATCC 27853 assessed as inhibition of bacterial growth by continuous dilution method
Staphylococcus aureus [8] = experiment: Antibacterial activity against Staphylococcus aureus ATCC 25923 assessed as inhibition of bacterial growth by continuous dilution method
Klebsiella pneumoniae = experiment: Antibacterial activity against Klebsiella pneumoniae assessed as inhibition of bacterial growth by continuous dilution method
Enterococcus faecalis = experiment: Antibacterial activity against Enterococcus faecalis assessed as inhibition of bacterial growth by continuous dilution method

In the case of `CC(=O)Nc1ccc(S(=O)(=O)/C(=C\c2nccs2)C(=O)c2nccs2)cc1`, the MIC (Pseudomonas aeruginosa [1]) is reported as 128 µg/mL (≈ 305 µM), the MIC (Staphylococcus aureus [2]) is reported as 8 µg/mL (≈ 19.1 µM) and the MIC (Escherichia coli [3]) is reported as 16 µg/mL (≈ 38.1 µM). It also gave an MIC (Staphylococcus aureus [4]) of 32 µg/mL (≈ 76.3 µM), an MIC (Staphylococcus aureus [5]) of 64 µg/mL (≈ 153 µM) and an MIC (Acinetobacter baumannii) of 128 µg/mL (≈ 305 µM). It also gave an MIC (Escherichia coli [6]) of 128 µg/mL (≈ 305 µM), an MIC (Pseudomonas aeruginosa [7]) of 128 µg/mL (≈ 305 µM) and an MIC (Staphylococcus aureus [8]) of 4 µg/mL (≈ 9.53 µM). It also gave an MIC (Klebsiella pneumoniae) of 16 µg/mL (≈ 38.1 µM) and an MIC (Enterococcus faecalis) of 16 µg/mL (≈ 38.1 µM).
`Nc1ccc(S(=O)(=O)C/C(=N/OCc2ccc(Cl)cc2)c2nccs2)cc1` was tested, and the MIC (Pseudomonas aeruginosa [1]) was 64 µg/mL (≈ 152 µM), the MIC (Staphylococcus aureus [2]) was 64 µg/mL (≈ 152 µM) and the MIC (Escherichia coli [3]) was 16 µg/mL (≈ 37.9 µM). It also gave an MIC (Staphylococcus aureus [4]) of 64 µg/mL (≈ 152 µM), an MIC (Staphylococcus aureus [5]) of 128 µg/mL (≈ 303 µM) and an MIC (Acinetobacter baumannii) of 64 µg/mL (≈ 152 µM). It also gave an MIC (Escherichia coli [6]) of 8 µg/mL (≈ 19 µM), an MIC (Pseudomonas aeruginosa [7]) of 8 µg/mL (≈ 19 µM) and an MIC (Staphylococcus aureus [8]) of 64 µg/mL (≈ 152 µM). It also gave an MIC (Klebsiella pneumoniae) of 16 µg/mL (≈ 37.9 µM) and an MIC (Enterococcus faecalis) of 8 µg/mL (≈ 19 µM).
`CC(=O)Nc1ccc(S(=O)(=O)C/C(=N/NC(=O)c2cccnc2)c2nccs2)cc1` was tested, and the MIC (Pseudomonas aeruginosa [1]) was 128 µg/mL (≈ 289 µM), the MIC (Staphylococcus aureus [2]) was 2 µg/mL (≈ 4.51 µM) and the MIC (Escherichia coli [3]) was 32 µg/mL (≈ 72.2 µM). It also gave an MIC (Staphylococcus aureus [4]) of 8 µg/mL (≈ 18 µM), an MIC (Staphylococcus aureus [5]) of 128 µg/mL (≈ 289 µM) and an MIC (Acinetobacter baumannii) of 32 µg/mL (≈ 72.2 µM). The MIC (Escherichia coli [6]) was 128 µg/mL (≈ 289 µM), the MIC (Pseudomonas aeruginosa [7]) was 16 µg/mL (≈ 36.1 µM) and the MIC (Staphylococcus aureus [8]) was 2 µg/mL (≈ 4.51 µM). It also gave an MIC (Klebsiella pneumoniae) of 16 µg/mL (≈ 36.1 µM) and an MIC (Enterococcus faecalis) of 128 µg/mL (≈ 289 µM).
Molecule `CCO/N=C(/CS(=O)(=O)c1ccc(N)cc1)c1nccs1` has an MIC (Pseudomonas aeruginosa [1]) of 64 µg/mL (≈ 197 µM), an MIC (Staphylococcus aureus [2]) of 256 µg/mL (≈ 787 µM) and an MIC (Escherichia coli [3]) of 16 µg/mL (≈ 49.2 µM). It also gave an MIC (Staphylococcus aureus [4]) of 256 µg/mL (≈ 787 µM), an MIC (Staphylococcus aureus [5]) of 64 µg/mL (≈ 197 µM) and an MIC (Acinetobacter baumannii) of 128 µg/mL (≈ 393 µM). It also gave an MIC (Escherichia coli [6]) of 32 µg/mL (≈ 98.3 µM), an MIC (Pseudomonas aeruginosa [7]) of 32 µg/mL (≈ 98.3 µM) and an MIC (Staphylococcus aureus [8]) of 64 µg/mL (≈ 197 µM). It also gave an MIC (Klebsiella pneumoniae) of 32 µg/mL (≈ 98.3 µM) and an MIC (Enterococcus faecalis) of 64 µg/mL (≈ 197 µM).
In the case of `C=CCO/N=C(/CS(=O)(=O)c1ccc(NC(C)=O)cc1)c1nccs1`, the MIC (Pseudomonas aeruginosa [1]) is reported as 128 µg/mL (≈ 337 µM), the MIC (Staphylococcus aureus [2]) is reported as 64 µg/mL (≈ 169 µM) and the MIC (Escherichia coli [3]) is reported as 64 µg/mL (≈ 169 µM). The MIC (Staphylococcus aureus [4]) was 128 µg/mL (≈ 337 µM), the MIC (Staphylococcus aureus [5]) was 64 µg/mL (≈ 169 µM) and the MIC (Acinetobacter baumannii) was 128 µg/mL (≈ 337 µM). It also gave an MIC (Escherichia coli [6]) of 16 µg/mL (≈ 42.2 µM), an MIC (Pseudomonas aeruginosa [7]) of 64 µg/mL (≈ 169 µM) and an MIC (Staphylococcus aureus [8]) of 32 µg/mL (≈ 84.3 µM). For the same molecule, the MIC (Klebsiella pneumoniae) was 64 µg/mL (≈ 169 µM) and the MIC (Enterococcus faecalis) was 32 µg/mL (≈ 84.3 µM).
In the case of `CC(=O)Nc1ccc(S(=O)(=O)/C(=C\c2ccccc2Cl)C(=O)c2nccs2)cc1`, the MIC (Pseudomonas aeruginosa [1]) is reported as 256 µg/mL (≈ 573 µM), the MIC (Staphylococcus aureus [2]) is reported as 256 µg/mL (≈ 573 µM) and the MIC (Escherichia coli [3]) is reported as 16 µg/mL (≈ 35.8 µM). The MIC (Staphylococcus aureus [4]) was 32 µg/mL (≈ 71.6 µM), the MIC (Staphylococcus aureus [5]) was 128 µg/mL (≈ 286 µM) and the MIC (Acinetobacter baumannii) was 128 µg/mL (≈ 286 µM). The MIC (Escherichia coli [6]) was 64 µg/mL (≈ 143 µM), the MIC (Pseudomonas aeruginosa [7]) was 32 µg/mL (≈ 71.6 µM) and the MIC (Staphylococcus aureus [8]) was 64 µg/mL (≈ 143 µM). For the same molecule, the MIC (Klebsiella pneumoniae) was 16 µg/mL (≈ 35.8 µM) and the MIC (Enterococcus faecalis) was 16 µg/mL (≈ 35.8 µM).
`CCCCO/N=C(/CS(=O)(=O)c1ccc(N)cc1)c1nccs1` gave an MIC (Pseudomonas aeruginosa [1]) of 32 µg/mL (≈ 90.5 µM), an MIC (Staphylococcus aureus [2]) of 64 µg/mL (≈ 181 µM) and an MIC (Escherichia coli [3]) of 32 µg/mL (≈ 90.5 µM). The MIC (Staphylococcus aureus [4]) was 32 µg/mL (≈ 90.5 µM), the MIC (Staphylococcus aureus [5]) was 64 µg/mL (≈ 181 µM) and the MIC (Acinetobacter baumannii) was 64 µg/mL (≈ 181 µM). It also gave an MIC (Escherichia coli [6]) of 32 µg/mL (≈ 90.5 µM), an MIC (Pseudomonas aeruginosa [7]) of 32 µg/mL (≈ 90.5 µM) and an MIC (Staphylococcus aureus [8]) of 32 µg/mL (≈ 90.5 µM). It also gave an MIC (Klebsiella pneumoniae) of 16 µg/mL (≈ 45.3 µM) and an MIC (Enterococcus faecalis) of 16 µg/mL (≈ 45.3 µM).
In the case of `CC(=O)Nc1ccc(S(=O)(=O)/C(=C\c2ccc(F)cc2F)C(=O)c2nccs2)cc1`, the MIC (Pseudomonas aeruginosa [1]) is reported as 128 µg/mL (≈ 285 µM), the MIC (Staphylococcus aureus [2]) is reported as 64 µg/mL (≈ 143 µM) and the MIC (Escherichia coli [3]) is reported as 128 µg/mL (≈ 285 µM). For the same molecule, the MIC (Staphylococcus aureus [4]) was 128 µg/mL (≈ 285 µM), the MIC (Staphylococcus aureus [5]) was 256 µg/mL (≈ 571 µM) and the MIC (Acinetobacter baumannii) was 128 µg/mL (≈ 285 µM). The MIC (Escherichia coli [6]) was 128 µg/mL (≈ 285 µM), the MIC (Pseudomonas aeruginosa [7]) was 64 µg/mL (≈ 143 µM) and the MIC (Staphylococcus aureus [8]) was 256 µg/mL (≈ 571 µM). The MIC (Klebsiella pneumoniae) was 128 µg/mL (≈ 285 µM) and the MIC (Enterococcus faecalis) was 128 µg/mL (≈ 285 µM).
`CC(=O)Nc1ccc(S(=O)(=O)C/C(=N/Nc2ccc(C(=O)O)cc2)c2nccs2)cc1` showed an MIC (Pseudomonas aeruginosa [1]) of 128 µg/mL (≈ 279 µM), an MIC (Staphylococcus aureus [2]) of 8 µg/mL (≈ 17.4 µM) and an MIC (Escherichia coli [3]) of 64 µg/mL (≈ 140 µM). It also gave an MIC (Staphylococcus aureus [4]) of 2 µg/mL (≈ 4.36 µM), an MIC (Staphylococcus aureus [5]) of 32 µg/mL (≈ 69.8 µM) and an MIC (Acinetobacter baumannii) of 64 µg/mL (≈ 140 µM). It also gave an MIC (Escherichia coli [6]) of 32 µg/mL (≈ 69.8 µM), an MIC (Pseudomonas aeruginosa [7]) of 32 µg/mL (≈ 69.8 µM) and an MIC (Staphylococcus aureus [8]) of 32 µg/mL (≈ 69.8 µM). It also gave an MIC (Klebsiella pneumoniae) of 128 µg/mL (≈ 279 µM) and an MIC (Enterococcus faecalis) of 16 µg/mL (≈ 34.9 µM).
Work on `CC(=O)Nc1ccc(S(=O)(=O)/C(=C\c2ccc(C)cc2)C(=O)c2nccs2)cc1` yielded an MIC (Pseudomonas aeruginosa [1]) of 128 µg/mL (≈ 300 µM), an MIC (Staphylococcus aureus [2]) of 128 µg/mL (≈ 300 µM) and an MIC (Escherichia coli [3]) of 256 µg/mL (≈ 600 µM). The MIC (Staphylococcus aureus [4]) was 256 µg/mL (≈ 600 µM), the MIC (Staphylococcus aureus [5]) was 256 µg/mL (≈ 600 µM) and the MIC (Acinetobacter baumannii) was 256 µg/mL (≈ 600 µM). For the same molecule, the MIC (Escherichia coli [6]) was 256 µg/mL (≈ 600 µM), the MIC (Pseudomonas aeruginosa [7]) was 128 µg/mL (≈ 300 µM) and the MIC (Staphylococcus aureus [8]) was 256 µg/mL (≈ 600 µM). It also gave an MIC (Klebsiella pneumoniae) of 256 µg/mL (≈ 600 µM) and an MIC (Enterococcus faecalis) of 128 µg/mL (≈ 300 µM).
In the case of `CC(=O)Nc1ccc(S(=O)(=O)C/C(=N/NC(=O)c2ccncc2)c2nccs2)cc1`, the MIC (Pseudomonas aeruginosa [1]) is reported as 8 µg/mL (≈ 18 µM), the MIC (Staphylococcus aureus [2]) is reported as 32 µg/mL (≈ 72.2 µM) and the MIC (Escherichia coli [3]) is reported as 128 µg/mL (≈ 289 µM). For the same molecule, the MIC (Staphylococcus aureus [4]) was 16 µg/mL (≈ 36.1 µM), the MIC (Staphylococcus aureus [5]) was 4 µg/mL (≈ 9.02 µM) and the MIC (Acinetobacter baumannii) was 32 µg/mL (≈ 72.2 µM). It also gave an MIC (Escherichia coli [6]) of 128 µg/mL (≈ 289 µM), an MIC (Pseudomonas aeruginosa [7]) of 4 µg/mL (≈ 9.02 µM) and an MIC (Staphylococcus aureus [8]) of 8 µg/mL (≈ 18 µM). For the same molecule, the MIC (Klebsiella pneumoniae) was 32 µg/mL (≈ 72.2 µM) and the MIC (Enterococcus faecalis) was 4 µg/mL (≈ 9.02 µM).
In the case of `N#CCO/N=C(/CS(=O)(=O)c1ccc(N)cc1)c1nccs1`, the MIC (Pseudomonas aeruginosa [1]) is reported as 64 µg/mL (≈ 190 µM), the MIC (Staphylococcus aureus [2]) is reported as 64 µg/mL (≈ 190 µM) and the MIC (Escherichia coli [3]) is reported as 16 µg/mL (≈ 47.6 µM). It also gave an MIC (Staphylococcus aureus [4]) of 128 µg/mL (≈ 381 µM), an MIC (Staphylococcus aureus [5]) of 64 µg/mL (≈ 190 µM) and an MIC (Acinetobacter baumannii) of 128 µg/mL (≈ 381 µM). The MIC (Escherichia coli [6]) was 8 µg/mL (≈ 23.8 µM), the MIC (Pseudomonas aeruginosa [7]) was 32 µg/mL (≈ 95.1 µM) and the MIC (Staphylococcus aureus [8]) was 64 µg/mL (≈ 190 µM). It also gave an MIC (Klebsiella pneumoniae) of 64 µg/mL (≈ 190 µM) and an MIC (Enterococcus faecalis) of 64 µg/mL (≈ 190 µM).
